Measured values: the supplement of paper PMC10307832

Legend:
Assay in all cases: relative viability (nuclei count vs DMSO), 5 days (fraction); higher = more cells survive
BI-D1870 + Pemetrexed = compound: CC(C)CCN1c2nc(Nc3cc(F)c(O)c(F)c3)ncc2N(C)C(=O)C1C [BI-D1870] + Nc1nc2[nH]cc(CCc3ccc(C(=O)N[C@@H](CCC(=O)O)C(=O)O)cc3)c2c(=O)[nH]1 [Pemetrexed] (partner 0.2 µM)
Outline: (§1)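 A single step with final 0.05% Triton X-100, 1% formaldehyde and 1 ug/ml Hoechst fixed the cells and stained nuclei 5 days after treatment. Lung cancer cell lines in 1536-well plates had been treated by pin tool the day after seeding with one drug alone or a fixed anchor-drug dose plus five library-drug doses (not always all listed) in √10 steps, and nuclei were counted on 4× images. Relative viability is the ratio of nuclei in treated wells to nuclei in vehicle wells, taken as the median of duplicate plates.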

Zebularine + Olaparib = compound: O=c1ncccn1[C@@H]1O[C@H](CO)[C@@H](O)[C@H]1O [Zebularine] + O=C(c1cc(Cc2n[nH]c(=O)c3ccccc23)ccc1F)N1CCN(C(=O)C2CC2)CC1 [Olaparib] (partner 8 µM)
Outline: as §1

Zebularine + OSI-027 = compound: O=c1ncccn1[C@@H]1O[C@H](CO)[C@@H](O)[C@H]1O [Zebularine] + COc1cccc2cc(-c3nc([C@H]4CC[C@H](C(=O)O)CC4)n4ncnc(N)c34)[nH]c12 [OSI-027] (partner 0.5 µM)
Outline: as §1

Zebularine + Decitabine = compound: O=c1ncccn1[C@@H]1O[C@H](CO)[C@@H](O)[C@H]1O [Zebularine] + Nc1ncn([C@H]2C[C@H](O)[C@@H](CO)O2)c(=O)n1 [Decitabine] (partner 2 µM)
Outline: as §1

| Cell Line | relative viability (BI-D1870 + Pemetrexed; first compound 0.04 µM) | relative viability (BI-D1870 + Pemetrexed; first compound 0.1265 µM) | relative viability (BI-D1870 + Pemetrexed; first compound 0.4 µM) | relative viability (BI-D1870 + Pemetrexed; first compound 1.265 µM) | relative viability (BI-D1870 + Pemetrexed; first compound 4 µM) | relative viability (Zebularine + Olaparib; first compound 1 µM) | relative viability (Zebularine + Olaparib; first compound 3.162 µM) | relative viability (Zebularine + Olaparib; first compound 10 µM) | relative viability (Zebularine + Olaparib; first compound 31.62 µM) | relative viability (Zebularine + Olaparib; first compound 100 µM) | relative viability (Zebularine + OSI-027; first compound 1 µM) | relative viability (Zebularine + OSI-027; first compound 3.162 µM) | relative viability (Zebularine + OSI-027; first compound 10 µM) | relative viability (Zebularine + OSI-027; first compound 31.62 µM) | relative viability (Zebularine + OSI-027; first compound 100 µM) | relative viability (Zebularine + Decitabine; first compound 1 µM) | relative viability (Zebularine + Decitabine; first compound 3.162 µM) | relative viability (Zebularine + Decitabine; first compound 10 µM) | relative viability (Zebularine + Decitabine; first compound 31.62 µM) | relative viability (Zebularine + Decitabine; first compound 100 µM) |
| --- | --- | --- | --- | --- | --- | --- | --- | --- | --- | --- | --- | --- | --- | --- | --- | --- | --- | --- | --- | --- |
| NCI-H2405 | 1.2 | 1.01 | 1 | 1.04 | 0.796 | 0.905 | 0.782 | 0.533 | 0.564 | 0.511 | 0.672 | 0.597 | 0.592 | 0.676 | 0.547 | 0.731 | 0.699 | 0.671 | 0.765 | 0.58 |
| NCI-H358 | 0.184 | 0.168 | 0.153 | 0.164 | 0.164 | 0.67 | 0.597 | 0.343 | 0.295 | 0.225 | 0.862 | 0.474 | 0.378 | 0.286 | 0.177 | 0.219 | 0.172 | 0.178 | 0.214 | 0.144 |
| NCI-H1944 | 0.899 | 0.603 | 0.599 | 0.631 | 0.552 | 0.449 | 0.474 | 0.366 | 0.34 | 0.246 | 0.445 | 0.466 | 0.385 | 0.434 | 0.421 | 0.455 | 0.424 | 0.449 | 0.461 | 0.395 |
| NCI-H1648 | 0.619 | 0.588 | – | 0.802 | 0.661 | 0.588 | 0.852 | 0.643 | 0.7 | 0.471 | 0.27 | 0.314 | 0.244 | 0.253 | 0.249 | 0.456 | 0.478 | 0.368 | 0.487 | 0.438 |
| EPLC-272H | 0.325 | 0.355 | 0.242 | 0.295 | 0.202 | 0.955 | 0.774 | – | 0.66 | 0.41 | 0.279 | 0.213 | 0.312 | 0.324 | 0.27 | 0.404 | – | 0.398 | 0.364 | 0.371 |
| NCI-H1915 | 0.473 | 0.489 | 0.458 | 0.419 | 0.381 | 0.266 | 0.262 | 0.243 | 0.253 | 0.197 | 0.672 | 0.548 | – | 0.622 | 0.486 | 0.284 | 0.278 | 0.261 | 0.265 | 0.282 |
| NCI-H596 | 0.458 | 0.47 | 0.45 | 0.576 | 0.454 | 0.7 | 0.746 | 0.713 | 0.591 | 0.547 | 0.696 | 0.78 | 0.593 | 0.708 | 0.559 | 0.84 | 1.07 | 0.894 | 1.06 | 0.98 |
| NCI-H322M | 0.632 | 0.564 | 0.596 | 0.59 | 0.517 | 0.544 | 0.673 | 0.597 | 0.581 | 0.555 | 0.524 | 0.531 | 0.47 | 0.5 | 0.521 | 0.712 | 0.636 | 0.614 | 0.696 | 0.675 |
| NCI-H2342 | 0.759 | 0.768 | 0.764 | 0.81 | 0.816 | 0.462 | 0.468 | 0.388 | 0.437 | 0.365 | 0.709 | 0.621 | 0.589 | 0.626 | 0.627 | 0.744 | 0.749 | 0.699 | 0.815 | 0.696 |
| NCI-H647 | 0.155 | 0.162 | 0.192 | 0.218 | 0.127 | 0.506 | 0.291 | 0.171 | 0.15 | 0.165 | 0.717 | 0.676 | 0.363 | 0.186 | 0.16 | 0.391 | 0.369 | 0.187 | 0.144 | 0.14 |
| SK-MES-1 | 0.992 | 0.874 | 0.895 | 0.716 | 0.622 | 0.947 | 0.722 | 0.479 | 0.393 | 0.268 | 0.707 | 0.606 | 0.454 | 0.514 | 0.288 | 0.442 | 0.397 | 0.321 | 0.286 | 0.261 |
| NCI-H2170 | 0.299 | 0.269 | 0.261 | 0.249 | 0.403 | 0.707 | 0.561 | 0.414 | 0.364 | 0.166 | 0.86 | 0.63 | 0.569 | 0.678 | 0.432 | 0.48 | 0.423 | 0.426 | 0.505 | 0.349 |
| NCI-H2085 | 0.924 | 0.802 | 0.887 | 0.881 | 0.603 | 0.782 | 0.709 | 0.568 | 0.482 | 0.399 | 0.737 | 0.537 | 0.602 | 0.769 | 0.516 | 0.543 | 0.506 | 0.487 | 0.576 | 0.508 |
| SW 1573 | 0.855 | 0.775 | 0.826 | 0.845 | 0.35 | 0.487 | 0.442 | 0.33 | 0.46 | 0.325 | 0.603 | 0.606 | – | 0.506 | 0.443 | 0.525 | 0.424 | 0.341 | 0.582 | 0.555 |
| NCI-H441 | 0.262 | 0.279 | 0.245 | 0.237 | 0.265 | 0.568 | 0.41 | 0.32 | 0.227 | 0.24 | 0.817 | 0.595 | 0.401 | 0.25 | 0.234 | 0.246 | 0.237 | 0.266 | 0.184 | 0.16 |
| LOU-NH91 | 0.355 | 0.372 | 0.329 | 0.386 | 0.344 | 0.906 | 0.891 | 0.704 | 0.775 | 0.469 | 0.746 | 0.7 | 0.66 | 0.699 | 0.571 | 0.842 | 0.802 | 0.744 | 0.849 | 0.593 |
